3 molecules from patent US20190282492A1, “COSMETIC COMPOSITIONS FOR SKIN REPARATION” (Natura Cosméticos S.A., priority 2016, published 2019) can be followed below.

Holding throughout (assay type): cell-based
The test system of experiment [1] is IL-8. In words: Quantification of inflammatory cytokines by flow cytometry (IL-8). The following applies: in terms of negative control. From the text: (§1) In another aspect, this invention also refers to an in vitro method of assessing skin repair, that is suitable for studying a variety of active ingredients, comprised of the following steps: • Step 1—Initial Indication: quantification of the FGF-2 growth factor through the flow cytometry technique; • Step 2—Inflammation: quantification of inflammatory cytokines (IL-1B, IL-6, IL-8, IL-10, IL-12 p70) through the flow cytometry technique; • Step 3—Cell proliferation and migration: • Cell proliferation through the Neutral Red detection method; • Cell migration through the ECIS and Scratch method; • Step 4—Remodeling and Resolution • Quantification of matrix metalloproteinase MMP-13 through the Enzyme-Linked Immunosorbent Assay (ELISA) technique; • Determination of collagenase/gelatinase enzyme activity (MMP-1 and MMP-3) and elastase (MMP-1 2) through the enzyme inhibition assay.
(§2) All the tests were conducted in triplicate, with experiments repeated at least twice, using negative control groups (no stimulation with active ingredients) and positive control groups (stimulated with molecules modulating the marker to be assayed). […]

Experiment [2] deals with IL-10. Put plainly: Quantification of inflammatory cytokines by flow cytometry (IL-10). The following applies: in terms of negative control.
Excerpt: as §1, §2
Background: In flow cytometry, cells or beads pass a laser one at a time.

The subject of experiment [3] is MMP-13. In words: Quantification of MMP-13 by ELISA. The following applies: compared to the untreated control.
Excerpt: as §1, §2
as §1, with “As a result,” for “In another aspect,”, “project encompassed the following” for “invention also refers to an”, “assays:” for “method of assessing skin repair, that is suitable for studying a variety of active ingredients, comprised of the following steps:”, “FGF2” for “FGF-2”
On the technique in general: An ELISA detects its analyte on a solid surface through an enzyme-linked reagent.

Experiment [4] can be described thus: Cell proliferation, Neutral Red detection method. The following applies: compared to the untreated control after 48 hours of treatment.
Excerpt: as §1, §2
as §1, with “As a result,” for “In another aspect,”, “project encompassed the following” for “invention also refers to an”, “assays:” for “method of assessing skin repair, that is suitable for studying a variety of active ingredients, comprised of the following steps:”, “FGF2” for “FGF-2”, “assay. […]” for “assay.”

For experiment [5], the system named is FGF-2. In words: Quantification of FGF-2 growth factor by flow cytometry. The settings on record: in comparison to the negative control.
Excerpt: as §1, §2

madecassoside: the IL-8 increase result in experiment [1] is “twofold increase”. In experiment [2], the IL-10 increase is 2.3 times. Besides, the “MMP-13 quantification, increase” value in experiment [3] is recorded as “threefold increases”. Further, the “increase in cell proliferation (in words)” value (“increase … (in words)” for short) in experiment [4] was “did not present significant increases”. Also, the FGF-2 increase entry in experiment [5] was “up to 115 times”.

On to `NC(=O)NC1NC(=O)NC1=O` (stereo not drawn) [allantoin], for which the “MMP-13 quantification, increase” value in experiment [3] is “threefold increases”. The “increase … (in words)” value in experiment [4] is listed as “did not present significant increases”.

B1: papain (protein, UniProt P00784 134-345, looked up)
Papain: IPEYVDWRQKGAVTPVKNQGSCGSCWAFSAVVTIEGIIKIRTGNLNEYSEQELLDCDRRSYGCNGGYPWSALQLVAQYGIHYRNTYPYEGVQRYCRSREKGPYAAKTDGVRQVQPYNEGALLYSIANQPVSVVLEAAGKDFQLYRGGIFVGPCGNKVDHAVAAVGYGPNYILIKNSWGTGWGENGYIRIKRGTGNSYGVCGLYTSSFYPVKN
notes: standard (enzyme)
For B1, the “MMP-13 quantification, increase” value in experiment [3] is “threefold increases”. Further, the “increase … (in words)” value in experiment [4] is “did not present significant increases”.
